Data set [1] deals with COLO 205 cells. Description: Cell cycle studies (G2/M arrest, DNA content by FACS) in COLO 205 cells. Type of data set: cell-based, human. On the technique in general: In flow cytometry, cells or beads pass a laser one at a time.
Description: Exponentially growing COLO 205 cells were resuspended at 1-2×10^5 cells/mL before drug or conjugate treatment. […] DNA content analysis was performed using FACSCalibur (Becton Dickinson, San Jose, Calif.). 10,000 events per sample were collected, and FL2-A histograms generated for each sample. The cell cycle analysis software, ModFit LT 3.1 (Verity Software House, Topsham, Me.) was used to determine the percentage of cells in different phases of the cell cycle.
Samples of asynchronously growing cells were exposed to conjugate (3 nM), or DM1-SMe (10 nM see FIG. 16 for structure), or nocodazole (0.66 μM) another inhibitor of microtubule polymerization, at 37° C. for 20 h and the DNA content of the cells was then analyzed by flow cytometry.
COLO 205 cells were first synchronized with a 24-hr treatment of aphidicolin, a reversible DNA replication inhibitor that blocks cells in S phase (Ikegami S. et al., Nature, 275, 458-460 ((1978)). Since the majority of the asynchronous population of COLO 205 cells were in G1 phase, most of the aphidicolin-treated cells arrested in the beginning of S phase, which cannot be distinguished from G1 phase in the FACS analysis (FIG. 11B, top picture). The synchronized cells were then released from the arrest by the removal of aphidicolin, and either left untreated, or treated with DM1-SMe or with either conjugate.
For data set [2] the following is noted: single intravenous dose of 12.5 μg/kg; cited from earlier work.
Data set [3] in a line: Thiol-disulfide interchange of DM4 in RPMI 1640 medium. As to conditions: buffer.
Description: To further test whether any of the metabolites in the media was a disulfide compound, a cell supernatant sample from a 26-hour exposure was divided into two equal portions of which one was subjected directly to chromatography, and the other portion was treated with DTT and selenol before chromatography to reduce all disulfide bonds (18).
Data set [4] has as its system antigen-positive COLO 205 cells. The experiment in a line: MTT-based cytotoxicity assay, COLO 205 cells (Example 2). Type of data set: cell-based, human. As to conditions: conjugates 4-day exposure. How it is done: (§1) The anti-tumor activity of the two conjugates was assessed in SCID mice bearing subcutaneous HT-29 or COLO 205 tumors (both CanAg-positive human colon adenocarcinoma).
(§2) The two major metabolites, S-methyl-DM4 and lysine-N^ε—SMCC-DM1, were synthesized and tested for their in vitro cytotoxicity against COLO 205 cells and Namalwa cells.

In data set [5] the test system is antigen-negative Namalwa cells. The experiment in a line: MTT-based cytotoxicity assay, Namalwa cells (Example 2). As to conditions: free maytansinoids. Type of data set: cell-based, human. How it is done: as §1, §2
A general note: Formazan colour is commonly taken as a measure of viable cells.

Bounds are passed on as bounds.

Broadly, the half-life is the time needed for the level to fall by half in the phase considered. Read a low half-life as fast loss. One may read the IC50 as the concentration that inhibits the measured activity by half. The low end stands for higher potency, the high end for lower potency.

Regarding `CO/C1=C\C(C)=C\[C@@H](C)[C@@H](O)[C@@H](C)C/C(C)=C/C=C/[C@H](OC)[C@@H]([C@@H](C)[C@@H](O)[C@H](C)[C@@]2(O)C[C@@H](O)[C@H](C)[C@@H](C(C)C)O2)OC1=O` [BafA1, Bafilomycin A1, reference compound], in data set [1] (BafA1 alone), the “distribution of cells between the phases of the cell cycle” value is “did not significantly alter the distribution of cells”.
For the compound `COc1c(O)c2c(c3cc(C(=O)N4CCc5c4c(O)c(OC)c4[nH]c(C(=O)N6CC7CC78C6=CC(=O)c6[nH]cc(C)c68)cc54)[nH]c13)CCN2C(N)=O` (stereo not drawn) [CC-1065], in data set [2], the “toxicity after administration to mice” value was “delayed hepatotoxicity leading to mortality on day 50”.
On to `COc1cc2cc(c1Cl)N(C)C(=O)C[C@H](OC(=O)[C@H](C)N(C)C(=O)CCSSC)[C@]1(C)O[C@H]1[C@H](C)[C@@H]1C[C@@](O)(NC(=O)O1)[C@H](OC)/C=C/C=C(\C)C2` [DM1-SMe, N^2′-deacetyl-N^2′-[(3-methyldithio)-1-oxopropyl]-maytansine], for which the “cells in G2 in the presence of chloroquine” value in data set [1] (20 h, 30 μM chloroquine, 10^−8 M DM1-SMe, 3×10^−9 M huC242-SMCC-DM1) is reported as 51%. Besides, in data set [1] (synchronized cells, after 10 h and after 18 h), the “cells in G2/M phase after release from aphidicolin” value is on record as 75% to 85%.
For the compound `COc1cc2cc(c1Cl)N(C)C(=O)CC(OC(=O)C(C)N(C)C(=O)CCC(C)(C)S)C1(C)OC1C(C)C1CC(O)(NC(=O)O1)C(OC)/C=C/C=C(\C)C2` (stereo not drawn) [DM4, N^2′-deacetyl-N-^2′(4-methyl-4-mercapto-1-oxopentyl)-maytansine], the half-life in data set [3] is less than 1 h.
For the compound `COc1cc2cc(c1Cl)N(C)C(=O)C[C@H](OC(=O)[C@H](C)N(C)C(=O)CCC(C)(C)SC)[C@]1(C)O[C@H]1[C@H](C)[C@@H]1C[C@@](O)(NC(=O)O1)[C@H](OC)/C=C/C=C(\C)C2` [S-methyl-DM4, N^2′-deacetyl-N^2′-(4-methylthio-4-methyl-1-oxopentyl)-maytansine], the IC50 in data set [4] and in data set [5] was 2 pM in each case.
`COc1cc2cc(c1Cl)N(C)C(=O)C[C@H](OC(=O)[C@H](C)N(C)C(C)=O)[C@]1(C)O[C@H]1[C@H](C)[C@@H]1C[C@@](O)(NC(=O)O1)[C@H](OC)/C=C/C=C(\C)C2` [maytansine, reference compound]: the half-inhibitory concentration (IC50) in data set [4] (Homo sapiens, COLO 205, 96 h) fell in the range of 30 to 60 pM; in data set [5] (Homo sapiens) it was 30 to 60 pM.

These data come from US8388960B2, “Elimination of heterogeneous or mixed cell population in tumors” (priority 2005, dated 2013).
